Nine compounds from US20240043435A1, “TYK-2 INHIBITOR” (BEIGENE, LTD., priority 2020, published 2024) can be followed below.

Where only a bound is given, the exact number is not on record here.

The target of test [1] is T1, TYK2-JH2 (aa 575-869, in-house) protein (Homo sapiens, UniProt P29597).
T1 construct: TYK2-JH2 (aa 575-869, in-house) protein; made in house
The experiment in a line: TYK2-JH2 biochemical assay (HTRF probe displacement). The note with it: Biochemical assay; read-out: TYK2-JH2 IC50. It is filed as binding. The method in brief: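 Recombinant TYK2-JH2 (0.2 nM) was pre-incubated 0.5 h at room temperature with compounds (10 doses, 5-fold dilution; 500× DMSO stocks from 500 uM) in 20 mM HEPES pH 7.5, 10 mM MgCl2, 0.005% BSA, 2 mM DTT, 0.015% Brij-35. Probe displacement was read by HTRF (ex337, em620/665 nm); IC50 from four-parameter logistic fit.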
For orientation: TR-FRET usually uses a lanthanide donor and a delayed reading to cut background.

Another test concerns pSTAT5/GM-CSF. The experiment in a line: pSTAT5/GM-CSF cellular assay (JAK2 selectivity). It is filed as cell-based. As to conditions: for Selectivity fold (TYK2/JAK2): pSTAT5/GM-CSF IC50 over pSTAT4/IL-12 IC50.
Test [2] concerns JAK2, TYK2/p-STAT4 (Tyr693) activated by IL-12 in NK-92 cell line. The experiment in a line: IL-12-JAK2, TYK2/p-STAT4 (Tyr693) inhibition IC50 cellular assay. Type of test: cell-based. The note with it: for IC50: NK92, Cellular assay, read-out: pSTAT4/IL-12 IC50; for Selectivity fold (TYK2/JAK2): Cellular assay, pSTAT5/GM-CSF IC50 vs pSTAT4/IL-12 IC50. The method in brief: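 NK-92 cells were starved overnight without IL-2 and preincubated 1 h at 37° C with compound (8 doses, 10000–0.61 nM, 4-fold, 0.2% DMSO). They were then stimulated with IL-12 (40 ng/ml final) for 30 min. Lysate p-STAT4 (Tyr693) was read by AlphaLISA SureFire; IC50 from four-parameter logistic fit.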

T1 sequence (P29597 575-869): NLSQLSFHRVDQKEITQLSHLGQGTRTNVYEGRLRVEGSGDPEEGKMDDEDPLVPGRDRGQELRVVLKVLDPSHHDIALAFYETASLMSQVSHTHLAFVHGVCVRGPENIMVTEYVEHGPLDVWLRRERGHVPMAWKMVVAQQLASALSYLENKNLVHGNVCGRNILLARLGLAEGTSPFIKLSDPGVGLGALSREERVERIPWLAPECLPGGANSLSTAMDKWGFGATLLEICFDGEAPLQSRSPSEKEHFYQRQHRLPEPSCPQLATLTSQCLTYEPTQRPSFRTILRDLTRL

In the case of `COCCOc1cc(Nc2cc(NC(C)=O)ncc2-c2cc(N3CCOCC3)n(C)n2)nc(S(C)(=O)=O)c1` [Example O2, N-(4-((4-(2-methoxyethoxy)-6-(methylsulfonyl)pyridin-2-yl)amino)-5-(1-methyl-5-morpholino-1H-pyrazol-3-yl)pyridin-2-yl)acetamide], the IC50 in test [1] was 0.016 nM; in the test on pSTAT5/GM-CSF it was 7010 nM; in test [2], 1.12 nM. Besides, in the test on pSTAT5/GM-CSF, the “Selectivity fold (TYK2/JAK2)” value worked out at 6265 fold.

As to `CC(=O)Nc1cc(Nc2cc(OC(F)F)cc(S(C)(=O)=O)c2)c(-c2ccn(C)n2)cn1` [Example J62, N-(4-((3-(difluoromethoxy)-5-(methylsulfonyl)phenyl)amino)-5-(1-methyl-1H-pyrazol-3-yl)pyridin-2-yl)acetamide], the IC50 in test [1] is 0.037 nM; with pSTAT5/GM-CSF it was greater than 10000 nM; in test [2], 4.85 nM. Moreover, the “Selectivity fold (TYK2/JAK2)” value with pSTAT5/GM-CSF is on record as greater than 2061 fold.

Take `CCn1ccc(-c2cnc(NC(C)=O)cc2Nc2cc(COC)cc(S(C)(=O)=O)n2)n1` [Example M7, N-(5-(1-ethyl-1H-pyrazol-3-yl)-4-((4-(methoxymethyl)-6-(methylsulfonyl)pyridin-2-yl)amino)pyridin-2-yl)acetamide]: the IC50 was 0.026 nM in test [1], greater than 10000 nM with pSTAT5/GM-CSF and 0.537 nM in test [2]. Moreover, the “Selectivity fold (TYK2/JAK2)” value in the test with pSTAT5/GM-CSF was greater than 18621 fold.

As for `COCCOc1ccc(-c2cnc(NC(C)=O)cc2Nc2cccc(S(C)(=O)=O)n2)nc1` [Example D1, N-(5-(2-methoxyethoxy)-4′-((6-(methylsulfonyl)pyridin-2-yl)amino)-[2,3′-bipyridin]-6′-yl)acetamide], the IC50 was 0.047 nM in test [1], greater than 10000 nM in the test with pSTAT5/GM-CSF and 0.251 nM in test [2]. The “Selectivity fold (TYK2/JAK2)” value in test [2] is on record as greater than 39840 fold.

With `CC(=O)Nc1cc(Nc2cc(OC3CCC3)cc(S(C)(=O)=O)n2)c(-c2ccn(C)n2)cn1` [Example J44, N-(4-((4-cyclobutoxy-6-(methylsulfonyl)pyridin-2-yl)amino)-5-(1-methyl-1H-pyrazol-3-yl)pyridin-2-yl)acetamide], the IC50 was 0.022 nM in test [1], greater than 10000 nM in the test on pSTAT5/GM-CSF and 0.358 nM in test [2]. Also, the “Selectivity fold (TYK2/JAK2)” value in the test with pSTAT5/GM-CSF was greater than 27932 fold.

For the compound `CC(=O)Nc1cc(Nc2cc(OC(C)C)cc(S(C)(=O)=O)n2)c(-n2cccn2)cn1` [Example A12, N-(4-((4-isopropoxy-6-(methylsulfonyl)pyridin-2-yl)amino)-5-(1H-pyrazol-1-yl)pyridin-2-yl)acetamide], the IC50 in test [1] was 0.037 nM; in the test on pSTAT5/GM-CSF, greater than 10000 nM; in test [2] it was 16.8 nM. The “Selectivity fold (TYK2/JAK2)” value in test [2] is recorded as greater than 595 fold.

In the case of `COC(C)COc1cc(Nc2cc(NC(C)=O)ncc2-c2ccc(C(C)(C)O)cn2)nc(S(C)(=O)=O)c1` (stereo not drawn) [Example H7, N-(5-(2-hydroxypropan-2-yl)-4′-((4-(2-methoxypropoxy)-6-(methylsulfonyl)pyridin-2-yl)amino)-[2,3′-bipyridin]-6′-yl)acetamide], the IC50 was 0.046 nM in test [1], greater than 10000 nM in the test on pSTAT5/GM-CSF and 1.22 nM in test [2]. In test [2], the “Selectivity fold (TYK2/JAK2)” value is given as greater than 8196 fold.

For `CC(=O)Nc1cc(Nc2cc(OCC(C)O)cc(S(C)(=O)=O)n2)c(-c2ccc(C(C)(C)O)cn2)cn1` (stereo not drawn) [Example H26, N-(5-(2-hydroxypropan-2-yl)-4′-((4-(2-hydroxypropoxy)-6-(methylsulfonyl)pyridin-2-yl)amino)-[2,3′-bipyridin]-6′-yl)acetamide], the values for the IC50 (in test [1]; with pSTAT5/GM-CSF; in test [2]) were 0.039 nM, greater than 10000 nM and 11.7 nM, respectively. Further, in test [2], the “Selectivity fold (TYK2/JAK2)” value is greater than 854 fold.

Regarding `CC(=O)Nc1cc(Nc2cc(OC(C)C)cc(S(C)(=O)=O)n2)c(-c2ccc(N3CC4CC3CO4)cn2)cn1` (stereo not drawn) [Example B16, N-(5-(2-oxa-5-azabicyclo[2.2.1]heptan-5-yl)-4′-((4-isopropoxy-6-(methylsulfonyl)pyridin-2-yl)amino)-[2,3′-bipyridin]-6′-yl)acetamide], the IC50 in test [1] was found to be 0.03 nM; in the test on pSTAT5/GM-CSF it was 4290 nM; in test [2], 0.513 nM. Moreover, the “Selectivity fold (TYK2/JAK2)” value in test [2] was 8366 fold.
